# Data taken from patent EP0377457A1, “Thiazole compounds, processes for the preparation thereof, and pharmaceutical composition comprising the same” (FUJISAWA PHARMACEUTICAL CO., LTD., priority 1989, dated 1990).
# pEC50, pIC50: −log10 of the molar value. Where a name gives a salt, the structure may show the parent alone. Read-outs that look alike come from different tables or passages of the source.
# Assays:
# platelet aggregation [1] = assay: Platelet aggregation ex vivo (arachidonic acid-induced, PRP after oral administration); assay type: in vivo, guinea-pigs; details: Cavia porcellus, 6 h, dose 1.0 mg/kg oral, blood collected six hours after administration, arachidonic acid final 50 µM as inducer
# Experimental: Male Hartley guinea-pigs weighing about 300 g were used after 24 hours fasting. Six hours after oral administration of the test compound or vehicle of test compound (control), blood was collected into a tube containing 0.1 vol. of 3.8% sodium citrate and prepared platelet rich plasma (PRP).
# To the 250 µl of PRP, 5 µl of arachidonic acid (final 50 µM) was added as an aggregation inducer. Aggregation was measured by using an aggregometer (NKK HEMA-TRACER 1).
# stomachs of the rats = assay: Effect on stomach of rats; assay type: in vivo; details: 100 mg/kg orally, rats treated as in the antiinflammatory test
# Paw edema = assay: Antiinflammatory activity (carrageenin paw edema); assay type: in vivo, Sprague-Dawly rats; details: 100 mg/kg orally 60 minutes before carrageenin; edema volume at 3 hours
# Experimental: Five male Sprague-Dawly rats weighing 160-180 g were used per group. Paw edema was induced by subplantar injection of 1 % carrageenin (0.1 ml/rat) into the right hind paw. The test drug was suspended in 0.5% methylcellulose and administered orally 60 minutes before phlogogen. Paw volume was measured with plethysmometer (Ugo Bazil Co., Ltd.) by water displacement immersing the paw to the lateral malleolus. The difference of paw volume before and 3 hours after the phlogogen was designated as edema volume. The data were analyzed statistically by student's t-test.
# cyclooxygenase = biological target: T1, cyclooxygenase (Ovis aries, UniProt P05979); assay: Assay for cyclooxygenase inhibition; assay type: biochemical, sheep
# T1 construct: 240 µg of the microsomal enzyme; tissue Ran Biochem (Israel); host or cells: sheep seminal vesicles, microsomal fraction
# T1 sequence (P05979 25-600): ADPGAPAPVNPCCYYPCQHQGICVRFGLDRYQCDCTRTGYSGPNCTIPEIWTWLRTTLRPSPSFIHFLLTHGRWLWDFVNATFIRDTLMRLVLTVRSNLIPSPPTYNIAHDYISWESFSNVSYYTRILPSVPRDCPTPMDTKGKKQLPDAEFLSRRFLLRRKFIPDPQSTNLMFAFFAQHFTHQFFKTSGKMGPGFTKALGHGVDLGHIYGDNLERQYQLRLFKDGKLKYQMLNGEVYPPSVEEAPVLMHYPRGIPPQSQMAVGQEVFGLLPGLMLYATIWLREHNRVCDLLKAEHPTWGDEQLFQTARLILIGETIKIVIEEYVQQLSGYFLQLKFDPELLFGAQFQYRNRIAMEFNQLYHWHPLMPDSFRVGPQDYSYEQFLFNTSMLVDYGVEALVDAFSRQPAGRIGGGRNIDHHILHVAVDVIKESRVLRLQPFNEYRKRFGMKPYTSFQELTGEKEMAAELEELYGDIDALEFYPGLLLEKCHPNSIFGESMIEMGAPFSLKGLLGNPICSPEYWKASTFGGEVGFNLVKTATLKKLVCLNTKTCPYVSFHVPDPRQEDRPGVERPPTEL
# Experimental: The microsomal fraction from sheep seminals vesicles was purchased from Ran Biochem (Israel). The reaction mixture consisted of 0.1 M Tris-HCI, pH 7.6, 1 mM epinephrine, 2 mM glutathione, 240 µg of the microsomal enzyme, in a total volume of 200 µl. The reaction was started by the addition of 10 µM (^14C) arachidonic acid (120 nM), and incubated at 37° C for 5 min. The reaction was stopped by the addition of 50 µl of 1 N HCI. The synthesized prostaglandins were extracted with 1.5 ml of ethylacetate. The ethyl acetate layer was dried with nitrogen gas, and dissolved in 100 µl of methanol. Ten microliters of the methanol solution were applied to a thin-layer plate (Merck, Kiesegel 60F), and developed with ethylacetate : acetate (100:2). The PGE2 fraction was scraped out, and the radioactivity was counted with 10 ml of toluene scintilator.
# The activity of the test compound was expressed as IC50 value i.e. doses required to inhibit the activity of cyclooxygenase by 50%.
# [2] = system: SRS-A synthesis or release from peritoneal exudate cells; assay: Anti-SRS-A activity; assay type: cell-based, SD rats; details: rat peritoneal exudate cells; Ca++-ionophore 1 µg/ml; SRS-A read on isolated guinea pig ileum; read-out: Inhibitory Concentration IC50
# Experimental: Peritoneal exudate cells were collected from glycogen-injected SD rats and adjusted to 1 x 10^7 cells/ml with Tyrode's solution. One milliliter of the cell suspension was incubated with indomethacin (10 µg/ml) and each varied concentration of the test compound for 10 minutes and, then, further incubated with Ca^++ - ionophore (A123187, 1 µg/ml) for 10 minutes. The supernatant was collected by centrifugation and the SRS-A (slow-reacting substance of anaphylaxis) activity was determined in terms of contractility of the isolated guinea pig ileum in the presence of mepyramine, atropine and methysergide.
# The results were expressed in terms of the 50% inhibitory concentration to SRS-A synthesis or release from peritoneal exudate cells.
# rats = assay: Acute toxicity; assay type: in vivo; details: peroral administration, 100 mg/kg
# isolated rat aorta = assay: Relaxation effect on isolated rat aorta; details: for pEC50: contraction induced by KCl 30 mM, maximum relaxation by papaverine, read-out: ED50 (the source's name)
# Experimental: Contraction was induced by addition of KCt solution (final concentration was 30 mM).
# Half-life period = details: rat, in vivo; rats, intravenous administration (0.32 mg/kg), (,B-phase)
# human washed platelets = assay: Thrombin induced aggregation in human washed platelets; assay type: cell-based; details: Platelet, concentration 1.0 x 10^-5 M, thrombin final conc. 0.3-0.5 U/ml
# Experimental: Blood was drawn from healthy volunteers into a plastic tube containing 1/10 volume of 3.8% sodium citrate and centrifuged at 120 g for 10 min to obtain platelet rich plasma (PRP). An equal volume of 25 mM Tris-HCI buffer (pH 7.4) containing 130 mM NaCl and 1.5 mM EDTA (buffer A) was added to the PRP, mixed and centrifuged at 1500 g for 10 min. The platelet pellet was suspended in buffer A and centrifuged at 1500 g for 5 min. The platelets were resuspended in 25 mM Tris-HCI buffer (pH 7.4) containing 130 mM NaCl and 0.3 mM EDTA and recentrifuged at 1500 g for 5 min. The platelets were finally suspended in Tyrode solution containing 0.3 % bovine serum albumin and the platelet count was adjusted to 3 x 10^8/ml. To 247.5 µl of platelet suspension, 2.5 µl of drug solution was added and incubated for 2 min at 37° C prior to addition of thrombin solution (final conc. 0.3-0.5 U/ml). Platelet aggregation was turbidometrically measured using a HEMATRACER 1.
# platelet aggregation [3] = assay: Platelet aggregation in vitro (collagen-induced, human PRP); assay type: cell-based; details: collagen (0.5 µg/ml) as inducer
# Experimental: (§1) Platelet rich plasma (PRP) which contains 6 - 7 x 10^8 platelets/ml and 3 x 10^8 platelets/ml was prepared from guinea-pig and human blood, respectively. To the each 245 µℓ of PRP, 5 µℓ of drug solution^* was added, and then stirred for 2 min at 37° C. To the solution, […] of collagen (0.5 µg/mℓ) was added as an aggregation inducer. Aggregation was measured by using an aggregometer (NKK HEMA-TRACER 1). Activities of inhibitors (test compounds) were expressed as IC50 values i.e. doses required to inhibit the platelet aggregation responses by 50%.
# (§2) Drug solution^* --- Test compounds were dissolved in a mixture of ethanol, polyethylene glycol and saline (1:1:2, V/V/V) and dimethylsulfoxide for guinea-pig and human blood, respectively.
# platelet aggregation [4] = assay: Platelet aggregation in vitro (collagen-induced, guinea-pig PRP); assay type: cell-based; details: Cavia porcellus, collagen (0.5 µg/ml) as inducer
# Experimental: as §1, §2
smiles,measurement,setting,value
"COc1ccc(-c2nc(C(=O)N3CCN(C)CC3)sc2-c2ccc(OC)cc2)cc1.Cl [Example 1, 4,5-bis(4-methoxyphenyl)-2-(4-methylpiperazin-1-yl)carbonylthiazole hydrochloride]",inhibition at 1 mg/kg,platelet aggregation [1],100%
same,lesion in the stomachs,stomachs of the rats,No lesion was observed
same,Inhibition (%) (Dose : 100 mg/kg),Paw edema,36.2%
same,pIC50,cyclooxygenase,6.37
same,IC50,[2],6.28 µg/mL
same,acute toxicity (dead),rats,the dead at dose of 100 mg/kg could not be observed
same,EC50,isolated rat aorta; read-out: ED50 (M),6.2e-06 M
same,half-life,Half-life period,4.51 h
"COc1ccc(-c2nc(C(=O)N(C)C)sc2-c2ccc(OC)cc2)cc1 [Example 3, 4,5-bis(4-methoxyphenyl)-2-(N,N-dimethylcarbamoyl) thiazole]",pEC50,isolated rat aorta,5.52
"COc1ccc(-c2nc(CNC(=N)N)sc2-c2ccc(OC)cc2)cc1 [Example 12, 4,5-bis(4-methoxyphenyl)-2-guanidinomethylthiazole hydrochloride]",inhibition at 10 µM,human washed platelets,100%
"COc1ccc(-c2nc(NC(=N)N(C)C)sc2-c2ccc(OC)cc2)cc1 [Example 14, 4,5-bis(4-methoxyphenyl)-2-(3,3-dimethylguanidino)thiazole hydrochloride]",IC50,platelet aggregation [3],0.56 µM
same,pEC50,isolated rat aorta,5.32
same,IC50,platelet aggregation [4],0.042 µM
"CN=C(NC)Nc1nc(-c2ccc(OC)cc2)c(-c2ccc(OC)cc2)s1 [Example 21, 4,5-Bis(4-methoxyphenyl)-2-(2,3-dimethylguanidino)thiazole methanesulfonate]",pEC50,isolated rat aorta,5.62
